# In patent US10144746B2 (GLOBAL BLOOD THERAPEUTICS, INC., priority 2015, dated 2018):
# Target: Human plasma kallikrein (Homo sapiens (Human), UniProt P03952)
# Assay: In vitro plasma kallikrein inhibition assay (chromogenic substrate D-Pro-Phe-Arg-pNa, absorbance at 405 nm, IC50 determination)
# Type: biochemical
# Settings: read-out: KLKB1 pIC50 (converted)
# Description: In Vitro Plasma Kallikrein Inhibition Assay
# The chromogenic substrate D-Pro-Phe-Arg-pNa, 2HCl (BIOPHEN CS-31(02) from Hyphen BioMed, Neuville-Sur-oise, France) was dissolved in 5 mL deionized water and stored at 4° C. […] All other chemicals were of analytical grade.
# A stock solution of 7 μM in 50% glycerol was stored at −20° C.
# Enzyme reactions were conducted in “assay buffer” comprised of 20 mM HEPES at pH 7.4, 150 mM NaCl, 0.1% PEG-8000 and 0.01% Triton X-100.
# Both enzyme and substrate were diluted in assay buffer.
# Plate measurements were conducted using a SPECTROStar Nano reader (BMG Labtech, San Francisco, Calif., USA). […] We used discrete wavelength, precise, kinetic reads of 15 cycles with a 60 sec cycle time.
# Determination of IC50 values
# The test compound was dissolved in 100% DMSO. The compounds were serially diluted in DMSO in a 7 point dose response. For the assays, 66.5 μL of protease solution (protease in assay buffer) was added per well followed by the addition of 8.5 μL of compound in 100% DMSO. […] After 30 min. incubation at room temperature on an orbital shaker, the reactions were started by the addition of 10 μL substrate solution (in assay buffer, final assay concentration was 600 uM). After the addition of the substrate solution the final DMSO concentration was 10%. The plate was placed again on the shaker for 5 sec, spun at 2000 rpm for 5 sec and read on the spectrophotometer. […] The IC50 value was calculated from the plot of rate vs. inhibitor concentration by a 4 parameter logistic equation: y=A+((B−A)/([…]))
# where y is the rate at the inhibitor concentration, x. A is the minimum y value at the highest inhibitor concentration and B is the y value in the absence of inhibitor, C is the IC50 value and D is the slope factor. The curve fitting was conducted with the non-linear regression routine of the analysis software XLfit (IDBS, version 5.3.1).
# Chain of Human plasma kallikrein (P03952 391-638): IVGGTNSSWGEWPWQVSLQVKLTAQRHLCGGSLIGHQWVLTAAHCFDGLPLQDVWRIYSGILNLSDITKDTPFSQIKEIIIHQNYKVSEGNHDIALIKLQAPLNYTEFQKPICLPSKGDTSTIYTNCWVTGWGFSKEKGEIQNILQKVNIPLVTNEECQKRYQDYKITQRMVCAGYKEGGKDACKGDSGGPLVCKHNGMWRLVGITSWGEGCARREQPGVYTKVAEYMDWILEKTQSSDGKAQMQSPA
# Chain of Human plasma kallikrein (P03952 20-390 partner): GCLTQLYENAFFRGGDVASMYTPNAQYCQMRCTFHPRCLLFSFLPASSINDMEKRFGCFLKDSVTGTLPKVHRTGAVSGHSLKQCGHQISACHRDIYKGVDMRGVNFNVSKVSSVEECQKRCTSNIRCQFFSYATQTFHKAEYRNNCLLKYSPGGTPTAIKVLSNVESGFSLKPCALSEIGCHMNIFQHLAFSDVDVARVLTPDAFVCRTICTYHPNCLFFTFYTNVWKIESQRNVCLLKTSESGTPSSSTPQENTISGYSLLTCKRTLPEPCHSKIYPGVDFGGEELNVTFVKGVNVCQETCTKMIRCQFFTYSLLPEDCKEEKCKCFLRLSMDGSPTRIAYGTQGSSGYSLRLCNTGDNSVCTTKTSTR
row,Compound,IC50
1,"Nc1ncc(CNC(=O)c2ccc3c(c2)C2OC3c3ccc(-c4ccc(F)cc4F)cc32)c2ccccc12 (racemic) [Example 155, (±)-N-[(1-aminoisoquinolin-4-yl)methyl]-12-(2,4-difluorophenyl)-15-oxatetracyclo [6.6.1.0^2,^7.0^9,1^4]-pentadeca-2,4,6,9,11,13-hexaene-4-carboxamide]",4070 nM
2,"Cc1ccc(C#N)c(-c2ccc3c(c2)C2OC3c3ccc(C(=O)NCc4c(C)cc(N)nc4C)cc32)c1 (racemic) [Example 156, (±)-N-[(6-amino-2,4-dimethylpyridin-3-yl)-methyl]-12-(2-cyano-5-methylphenyl)-15-oxatetracyclo[6.6.1.0^2,^7.0^9,1^4] pentadeca-2,4,6,9,11,13-hexaene-4-carboxamide]",93.3 nM
3,"Cc1ccc(-c2ccc3c(c2)C2OC3c3ccc(C(=O)NCc4c(C)cc(N)nc4C)cc32)c(C#N)n1 (racemic) [Example 157, (±)-N-[(6-amino-2,4-dimethylpyridin-3-yl)-methyl]-12-(2-cyano-6-methylpyridin-3-yl)-15-oxatetracyclo [6.6.1.0^2,^7.0^9,1^4] pentadeca-2,4,6,9,11,13-hexaene-4-carboxamide]",22.9 nM
4,"Cc1cc(N)nc(C)c1CNC(=O)c1ccc2c(c1)C1OC2c2ccc(-c3cccc(C(F)(F)F)c3C#N)cc21 (racemic) [Example 158, (±)-N-[(6-amino-2,4-dimethylpyridin-3-yl)-methyl]-12-[2-cyano-3-(trifluoromethyl)phenyl]-15-oxatetracyclo[6.6.1.0^2,^7.0^9,1^4] pentadeca-2,4,6,9,11,13-hexaene-4-carboxamide]",112 nM
5,"Cc1cccc(Oc2ccc3c(c2)C2OC3c3ccc(C(=O)NCc4c(C)cc(N)nc4C)cc32)c1 (racemic) [Example 159, (±)-N-[(6-amino-2,4-dimethylpyridin-3-yl)-methyl]-12-(3-methylphenoxy)-15-oxatetracyclo[6.6.1.0^2,^7.0^9,1^4] pentadeca-2,4,6,9,11,13-hexaene-4-carboxamide]",1860 nM
6,"Cc1c(CNC(=O)c2ccc3c(c2)C2OC3c3ccc(Cn4cccn4)cc32)c(F)cc2c1CNC2 (racemic) [Example 160, (±)-N-[(6-fluoro-4-methyl-2,3-dihydro-1H-isoindol-5-yl)methyl]-12-[(1H-pyrazol-1-yl)methyl]-15-oxatetracyclo [6.6.1.0^2,^7.0^9,1^4]-pentadeca-2,4,6,9,11,13-hexaene-4-carboxamide]",120 nM
7,"Cc1cc2c(c(C)c1CNC(=O)c1ccc3c(c1)C1OC3c3ccc(Cn4cccn4)cc31)CNC2 (racemic) [Example 161, (±)-N-[(4,6-dimethyl-2,3-dihydro-1H-isoindol-5-yl)methyl]-12-[(1H-pyrazol-1-yl)methyl]-15-oxatetracyclo[6.6.1.0^2,^7.0^9,1^4]-pentadeca-2,4,6,9,11,13-hexaene-4-carboxamide]",1290 nM
8,"Cc1cnn(Cc2ccc3c(c2)C2OC3c3ccc(C(=O)NCc4c(C)cc5c(c4C)CNC5)cc32)c1 (racemic) [Example 162, (±)-N-[(4,6-dimethyl-2,3-dihydro-1H-isoindol-5-yl)methyl]-12-[(4-methyl-1H-pyrazol-1-yl)methyl]-15-oxatetracyclo [6.6.1.0^2,^7.0^9,1^4]-pentadeca-2,4,6,9,11,13-hexaene-4-carboxamide]",72.4 nM
9,"Cc1cc(CNC(=O)c2ccc3c(c2)C2OC3c3ccc(-c4ccc(F)cc4F)cc32)c(C)nc1N (racemic) [Example 166, (±)-N-[(6-amino-2,5-dimethylpyridin-3-yl)-methyl]-12-(2,4-difluorophenyl)-15-oxatetracyclo[6.6.1.0^2,^7.0^9,1^4] pentadeca-2,4,6,9,11,13-hexaene-4-carboxamide]",6760 nM
10,"COc1ccncc1-c1ccc2c(c1)C1OC2c2ccc(C(=O)NCc3c(C)cc(N)nc3C)cc21 (racemic) [Example 167, (±)-N-[(6-amino-2,4-dimethylpyridin-3-yl)-methyl]-12-(4-methoxypyridin-3-yl)-15-oxatetracyclo[6.6.1.0^2,^7.0^9,1^4] pentadeca-2,4,6,9,11,13-hexaene-4-carboxamide]",115 nM
11,"Nc1cc(CNC(=O)c2ccc3c(c2)C2OC3c3ccc(-c4ccc(F)cc4F)cc32)ccn1 (racemic) [Example 168, (±)-N-[(2-aminopyridin-4-yl)methyl]-12-(2,4-difluorophenyl)-15-oxatetracyclo[6.6.1.0^2,^7.0^9,1^4]-pentadeca-2,4,6,9,11,13-hexaene-4-carboxamide]",20000 nM
12,"Cc1cc(N)nc(C)c1CNC(=O)c1ccc2c(c1)C1OC2c2ccc(-c3cc(F)c(F)cc3F)cc21 (racemic) [Example 169, (±)-N-[(6-amino-2,4-dimethylpyridin-3-yl)-methyl]-12-(2,4,5-trifluorophenyl)-15-oxatetra-cyclo [6.6.1.0^2,^7.0^9,1^4]pentadeca-2,4,6,9,11,13-hexaene-4-carboxamide]",34.7 nM
13,"CC(=O)N1C2c3ccc(C(=O)NCc4c(C)cc(N)nc4C)cc3C1c1cc(-c3ccc(F)cc3F)ccc12 (racemic) [Example 209, (±)-15-acetyl-N-[(6-amino-2,4-dimethylpyridin-3-yl)methyl]-12-(2,4-difluorophenyl)-15-azatetracyclo[6.6.1.0^2,^7.0^9,1^4] pentadeca-2,4,6,9,11,13-hexaene-4-carboxamide and (±)-15-acetyl-N-[(6-amino-2,4-dimethylpyridin-3-yl)methyl]-11-(2,4-difluorophenyl)-15-azatetracyclo[6.6.1.0^2,^7.0^9,1^4] pentadeca-2,4,6,9,11,13-hexaene-4-carboxamide]",3470 nM

# Other lines, results leading:
row,IC50,Compound
1,10 nM,"CCCc1cc(N)nc(C)c1CNC(=O)c1ccc2c(c1)C1OC2c2ccc(-c3ccc(F)cc3F)cc21 (racemic) [Example 172, (±)-N-[(6-amino-2-methyl-4-propylpyridin-3-yl)methyl]-12 (2,4-difluorophenyl)-15-oxatetracyclo[6.6.1.0^2,^7.0^9,1^4] pentadeca-2,4,6,9,11,13-hexaene-4-carboxamide]"
2,3.02 nM,"Cc1nc(N)cc(C(C)C)c1CNC(=O)c1ccc2c(c1)C1OC2c2ccc(-c3ccc(F)cc3F)cc21 (racemic) [Example 173, (±)-N-{[6-amino-2-methyl-4-(propan-2-yl)pyridin-3-yl]methyl}-12-(2,4-difluorophenyl)-15-oxatetra-cyclo[6.6.1.0^2,^7.0^9,1^4]pentadeca-2,4,6,9,11,13-hexaene-4-carboxamide]"
3,11 nM,"Cc1nc(N)cc(C2CC2)c1CNC(=O)c1ccc2c(c1)C1OC2c2ccc(-c3ccc(F)cc3F)cc21 (racemic) [Example 180, (±)-N-[(6-amino-4-cyclopropyl-2-methylpyridin-3-yl)methyl]-12-(2,4-difluorophenyl)-15-oxatetracyclo[6.6.1.0^2,^7.0^9,1^4] pentadeca-2,4,6,9,11,13-hexaene-4-carboxamide]"
4,10 nM,"Cc1cc(N)nc(C)c1CNC(=O)c1ccc2c(c1)C1OC2c2ccc(C(=O)c3ccccc3)cc21 (racemic) [Example 188, (±)-N-[(6-amino-2,4-dimethylpyridin-3-yl)methyl]-12-benzoyl-15-oxatetracyclo-[6.6.1.0^2,^7.0^9,1^4]pentadeca-2,4,6,9,11,13-hexaene-4-carboxamide]"
5,4.57 nM,"N=C(N)c1ccc(CNC(=O)c2ccc3c(c2)C2OC3c3ccc(-c4ccccc4)cc32)cc1 (racemic) [Example 189, (±)-N-[(4-carbamimidoylphenyl)methyl]-12-phenyl-15-oxatetracyclo[6.6.1.0^2,^7.0^9,1^4]-pentadeca-2,4,6,9,11,13-hexaene-4-carboxamide]"
6,129 nM,"CN(C)C(=NC(=N)c1ccc(CNC(=O)c2ccc3c(c2)C2OC3c3ccc(-c4ccccc4)cc32)cc1)N(C)C (racemic) [Example 190, (±)-N-{[4-({[bis(dimethylamino)methylidene]-amino}methanimidoyl)phenyl]methyl}-12-phenyl-15-oxatetracyclo[6.6.1.0^2,^7.0^9,1^4] pentadeca-2,4,6,9,11,13-hexaene-4-carboxamide]"
7,100000 nM,"N/C(=N\O)c1ccc(CNC(=O)c2ccc3c(c2)C2OC3c3ccc(-c4ccc(F)cc4F)cc32)cc1F (racemic) [Example 197, (±)-12-(2,4-difluorophenyl)-N-({3-fluoro-4-[N′-hydroxycarbamimidoyl]phenyl}methyl)-15-oxatetracyclo[6.6.1.0^2,^7.0^9,1^4] pentadeca-2,4,6,9,11,13-hexaene-4-carboxamide]"
8,20.9 nM,"N=C(N)c1ccc(CNC(=O)c2ccc3c(c2)C2OC3c3ccc(-c4ccc(F)cc4F)cc32)cc1F (racemic) [Example 198, (±)-N-[(4-carbamimidoyl-3-fluorophenyl)methyl]-12-(2,4-difluorophenyl)-15-oxatetracyclo-[6.6.1.0^2,^7.0^9,1^4]pentadeca-2,4,6,9,11,13-hexaene-4-carboxamide]"
